From ChEMBL document CHEMBL3526040, “Immune-mediated agranulocytosis caused by the cocaine adulterant levamisole: a case for reactive metabolite(s) involvement” (Drug Metab Dispos, 2012)
Blank lines part the entries; values can stand above or below the molecule they belong to.

Tests used:
[1] = Drug excretion in human urine treated with [3H]-levamisole at 150 mg, po; assay type: ADME, tissue-based; conditions: in vivo
[2] = Renal clearance in male human at 150 mg, po; conditions: in vivo
[3] = Renal clearance in female human at 150 mg, po; conditions: in vivo
[4] = Oral bioavailability in human at 150 mg; conditions: in vivo
[5] = Oral bioavailability in male human at 150 mg; conditions: in vivo
[6] = Oral bioavailability in female human at 150 mg; conditions: in vivo
[7] = Renal excretion in human at 150 mg, po; conditions: urine
[8] = Half life in blood (unknown origin)
[9] = Plasma clearance in human at 150 mg, po
[10] = Plasma clearance in male human at 150 mg, po
[11] = Plasma clearance in female human at 150 mg, po
[12] = Elimination half life in human at 150 mg, po; conditions: in vivo
[13] = Elimination half life in male human at 150 mg, po; conditions: in vivo
[14] = Elimination half life in female human at 150 mg, po; conditions: in vivo
[15] = Volume of distribution at steady state in dog at 10 mg/kg, iv; conditions: in vivo
[16] = AUC in human at 150 mg, po; conditions: plasma
[17] = AUC in male human at 150 mg, po; conditions: plasma
[18] = AUC in female human at 150 mg, po; conditions: plasma
[19] = Cmax in human at 150 mg, po; conditions: in vivo
[20] = Cmax in male human at 150 mg, po; conditions: in vivo
[21] = Cmax in female human at 150 mg, po; conditions: in vivo
[22] = Tmax in human at 150 mg, po; conditions: in vivo
[23] = Tmax in male human at 150 mg, po; conditions: in vivo
[24] = Tmax in female human at 150 mg, po; conditions: in vivo
[25] = Renal clearance in human at 150 mg, po; conditions: in vivo
[26] = in vivo; conditions: dog, po, 10 mg/kg
Description: Oral bioavailability in fasted dog at 10 mg/kg

[27] = in vivo; conditions: dog, po, 10 mg/kg; remark: listed apart in the source
Description: Oral bioavailability in fed dog at 10 mg/kg

[28] = in vivo; conditions: dog, plasma, iv, 10 mg/kg
Description: Plasma clearance in dog at 10 mg/kg, iv

[29] = in vivo; conditions: dog, iv, 10 mg/kg
Description: Elimination half life in dog at 10 mg/kg, iv

[30] = in vivo; conditions: dog, po, 10 mg/kg; remark: listed apart in the source
Description: Elimination half life in fasted dog at 10 mg/kg, po

[31] = in vivo; conditions: dog, po, 10 mg/kg; remark: listed apart in the source
Description: Elimination half life in fed dog at 10 mg/kg, po

[32] = in vivo; conditions: dog, plasma, iv, 10 mg/kg; remark: listed apart in the source
Description: AUC in dog at 10 mg/kg, iv

[33] = in vivo; conditions: dog, plasma, po, 10 mg/kg
Description: AUC in fasted dog at 10 mg/kg, po

[34] = in vivo; conditions: dog, plasma, po, 10 mg/kg; remark: listed apart in the source
Description: AUC in fed dog at 10 mg/kg, po

[35] = in vivo; conditions: dog, po, 10 mg/kg; remark: listed apart in the source
Description: Cmax in fasted dog at 10 mg/kg, po

[36] = in vivo; conditions: dog, po, 10 mg/kg; remark: listed apart in the source
Description: Cmax in fed dog at 10 mg/kg, po

[37] = in vivo; conditions: dog, po, 10 mg/kg; remark: listed apart in the source
Description: Tmax in fasted dog at 10 mg/kg, po

[38] = in vivo; conditions: dog, po, 10 mg/kg; remark: listed apart in the source
Description: Tmax in fed dog at 10 mg/kg, po

- Drug excretion [1]: 25%
Compound: Oc1ccc([C@H]2CN3CCSC3=N2)cc1

- Drug excretion [1]: 25%
Compound: O=C(O)[C@H]1O[C@@H](Oc2ccc([C@H]3CN4CCSC4=N3)cc2)[C@H](O)[C@@H](O)[C@@H]1O

- CL renal [2]: 31 mL/min
- CL renal [3]: 25 mL/min
- bioavailability [4]: 62.5%
- bioavailability [5]: 61.5%
- bioavailability [6]: 64.7%
- dose excreted [7]: 3%
- half-life [8]: < 360 min
- CL/F [9]: 8.04 mL/min/kg
- CL/F [10]: 8.25 mL/min/kg
- CL/F [11]: 7.56 mL/min/kg
- half-life [12]: 336 min
- half-life [13]: 324 min
- half-life [14]: 354 min
- Vd [15]: 1.42 L/kg
- AUC [16]: 3070 ng·h/mL
- AUC [17]: 3070 ng·h/mL
- AUC [18]: 3070 ng·h/mL
- Cmax [19]: 717 ng/mL
- Cmax [20]: 672 ng/mL
- Cmax [21]: 820 ng/mL
- Tmax [22]: 1.5 h
- Tmax [23]: 1.7 h
- Tmax [24]: 1.1 h
- CL renal [25]: 29.2 mL/min
- bioavailability [26]: 64%
- bioavailability [27]: 44%
- clearance [28]: 8.92 mL/min/kg
- half-life [29]: 108 min
- half-life [30]: 78 min
- half-life [31]: 96 min
- AUC [32]: 18100 ng·h/mL
- AUC [33]: 12200 ng·h/mL
- AUC [34]: 8940 ng·h/mL
- Cmax [35]: 3330 ng/mL
- Cmax [36]: 1980 ng/mL
- Tmax [37]: 1.8 h
- Tmax [38]: 4.5 h
Compound: c1ccc([C@H]2CN3CCSC3=N2)cc1 [LEVAMISOLE]
